Source: publication PMC4742278, “BS69/ZMYND11 C-Terminal Domains Bind and Inhibit EBNA2” (PLoS Pathogens, 2016)
Substitutions are numbered along the chain they refer to. Ends that are not written are not given here.

What was measured:
BS69MYND Q546A = test: ITC binding to BS69MYND Q546A; design: species or system mouse
Text: (§1) The DNA sequence encoding residues 440–562 (BS69CC-MYND) of mouse BS69/ZMYND11 was inserted into a modified PRSF-duet vector (Novagen), in which the BS69 fragments are separated from the preceding His6-SUMO tag by a ubiquitin-like protein (ULP1) cleavage site; and the DNA sequence encoding BS69 516–562 (BS69MYND) was inserted into a pGEX-6P-1 vector (GE Healthcare), preceded by a GST tag and a PreScission protease cleavage site. Note that the amino acid sequences of both fragments are identical to the corresponding regions of human BS69. The BS69MYND mutants were constructed by site-directed mutagenesis and confirmed by DNA sequencing. The plasmid was then transformed into BL21 (DE3) RIL cell strain for overexpression. The bacterial cells were grown at 37°C and induced by 0.4 mM isopropyl β-d-1-thiogalactopyranoside (IPTG) when the cells density reached an optical density (OD600) of 0.6. After induction, the cells continued to grow at 20°C for overnight. […]
(§2) The EBNA2_381–389 peptide with an additional Gly-Tyr dipeptide at the C-terminus (NH2-SMPSLEPVLGY-CONH2), the EBNA2_435–445 peptide, and the EBNA2_381–445 peptide were used for ITC assays. […] The ITC data was analyzed with the Origin 7.0 software using a one-site fitting model.

BS69CC-MYND Q546A = test: ITC binding to BS69CC-MYND Q546A; design: species or system mouse; conditions: S1D Fig; ITC parameters could not be reliably determined
Text: as §1, §2

BS69CC-MYND = biological target: T1, BS69CC-MYND (Mus musculus, UniProt Q8R5C8); test: ITC binding to BS69CC-MYND wild type; conditions: EBNA2_435–445, peptide titrated into BS69CC-MYND, 5°C, 20 mM Tris-HCl pH 7.5, 100 mM NaCl, 2 mM DTT, one-site fitting, read-out: dissociation constant (K d)
T1 construct: His6-SUMO (N, cleaved yes); made in house; host or cells: E. coli BL21 (DE3) RIL
T1 sequence (Q8R5C8 480-602): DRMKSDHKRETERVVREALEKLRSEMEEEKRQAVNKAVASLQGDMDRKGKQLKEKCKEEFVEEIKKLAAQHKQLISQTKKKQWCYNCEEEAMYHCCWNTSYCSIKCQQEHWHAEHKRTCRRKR
Text: as §1, §2

BS69CC-MYND Q546A/W550A = test: ITC binding to BS69CC-MYND Q546A/W550A; design: species or system mouse; conditions: S1E Fig; ITC parameters could not be reliably determined
Text: as §1, §2

BS69MYND = biological target: T2, BS69MYND (Mus musculus, UniProt Q8R5C8); test: ITC binding to BS69MYND wild type; conditions: EBNA2_435–445, peptide titrated into BS69MYND, 5°C, 20 mM Tris-HCl pH 7.5, 100 mM NaCl, 2 mM DTT, one-site fitting, read-out: dissociation constant (K d)
T2 construct: GST (N, cleaved yes); made in house; host or cells: E. coli BL21 (DE3) RIL
T2 sequence (Q8R5C8 556-602): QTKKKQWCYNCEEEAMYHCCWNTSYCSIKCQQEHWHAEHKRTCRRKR
Text: as §1, §2

BS69MYND Y532A = biological target: T3, BS69MYND Y532A (Mus musculus, UniProt Q8R5C8, Y572A); test: ITC binding to BS69MYND Y532A; conditions: versus BS69MYND wild type
T3 construct: GST (N, cleaved yes); made in house; host or cells: E. coli BL21 (DE3) RIL
T3 sequence (Q8R5C8 556-602 Y572A): T2 sequence (Q8R5C8 556-602) with Y17A
Text: as §1, §2

BS69MYND R560A = biological target: T4, BS69MYND R560A (Mus musculus, UniProt Q8R5C8, R600A); test: ITC binding to BS69MYND R560A; conditions: versus BS69MYND wild type
T4 construct: GST (N, cleaved yes); made in house; host or cells: E. coli BL21 (DE3) RIL
T4 sequence (Q8R5C8 556-602 R600A): T2 sequence (Q8R5C8 556-602) with R45A
Text: as §1, §2

BS69MYND W550A = test: ITC binding to BS69MYND W550A; design: species or system mouse; conditions: mutation W550A, EBNA2_381–389 peptide used with additional C-terminal Gly-Tyr
Text: as §1, §2

Substance	effect of Q546A on binding affinity of BS69MYND-EBNA2_435–445 complex (BS69MYND Q546A; BS69MYND Q546A)	ITC heat measurements with BS69CC-MYND Q546A (BS69CC-MYND Q546A)	Kd (BS69CC-MYND)	ITC heat measurements with BS69CC-MYND Q546A/W550A (BS69CC-MYND Q546A/W550A)	Kd (BS69MYND)	interaction with BS69MYND Q546A (BS69MYND Q546A; mutation Q546A, EBNA2_381–389 peptide used with additional C-terminal Gly-Tyr)	decrease of BS69MYND-EBNA2_381–389 binding by mutation Y532A (BS69MYND Y532A)	decrease of BS69MYND-EBNA2_381–389 binding by mutation R560A (BS69MYND R560A)	interaction with BS69MYND W550A (BS69MYND W550A)
EAPILFPDDWY-NH2 [EBNA2_435–445]	substantially decreases	significantly lower than those of Fig 2H	34.9 µM	significantly lower than those of Fig 2H	93.4 µM				
H-SMPSLEPVLGY-NH2 [EBNA2_381–389]						largely abolished the interaction	about 3 fold	~10 fold	largely abolished the interaction
